Values belong to the molecule of their own block, whether it stands above or below them.
What was measured:
[1] = Inhibition towards diaminopimelate (DAP) epimerase was determined and expressed as KI
[2] = Inhibition towards diaminopimelate (DAP) epimerase was determined
[3] = target: T1, Glutamate racemase (Lactobacillus fermentum) (UniProt Q03469); assay: Enzyme kinetic constant for Glutamate racemase and expressed as Kcat
T1 sequence (whole entry): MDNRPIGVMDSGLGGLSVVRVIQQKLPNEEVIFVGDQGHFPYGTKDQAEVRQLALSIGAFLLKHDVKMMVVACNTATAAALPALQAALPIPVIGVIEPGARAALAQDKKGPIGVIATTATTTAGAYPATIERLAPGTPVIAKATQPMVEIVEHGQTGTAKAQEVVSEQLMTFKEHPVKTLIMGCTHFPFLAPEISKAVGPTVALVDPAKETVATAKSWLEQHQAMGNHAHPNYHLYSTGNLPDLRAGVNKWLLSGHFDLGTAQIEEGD

[4] = Ratio of kcat to that of KM was determined
Glutamate racemase [5] = target: T2, Glutamate racemase (Lactobacillus fermentum, UniProt Q03469); assay: Inhibition towards glutamate racemase from Lactobacillus fermenti was determined and expressed as KI; design: species or system Limosilactobacillus fermentum
T2 sequence (Q03469 whole entry): T1 sequence (whole entry)

Glutamate racemase [6] = target: T2, Glutamate racemase; assay: Inhibition towards glutamate racemase was determined and expressed as KI; design: species or system Limosilactobacillus fermentum
[7] = substrate: O=C(O)CCC(=O)C(=O)O; assay: Enzyme kinetic constant for Glutamate racemase and expressed as Km
[8] = substrate: N[C@H](CCC(=O)O)C(=O)O; conditions: Limosilactobacillus fermentum

Ki [1]: 5.6 µM
Molecule: NC(CCCC(NO)C(=O)O)C(=O)O (centres undefined)

Molecule: N[C@@H](CC[C@H](F)[C@@H](N)C(=O)O)C(=O)O
IC50 [2]: 8 µM

k cat [3]: 0.18 s⁻¹ | k cat/Km [4]: 3200 M⁻¹ s⁻¹
Molecule: O=C(O)CCC(=O)C(=O)O

Molecule: N[C@H](C(=O)O)[C@@H](F)CC[C@H](N)C(=O)O
IC50 [2]: 4 µM

Ki (Glutamate racemase [5]): 28 µM | k cat/Km [4]: 30 M⁻¹ s⁻¹
Molecule: N[C@@H](CCC(=O)O)C(=O)O [GLUTAMIC ACID]

Molecule: N[C@H](C(=O)O)[C@H](F)CC[C@H](N)C(=O)O
IC50 [2]: 10 µM

Molecule: N[C@@H](CC[C@@H](F)[C@@H](N)C(=O)O)C(=O)O
IC50 [2]: 25 µM

Ki (Glutamate racemase [5]): 56 µM | Ki (Glutamate racemase [6]): 190 µM | k cat/Km [4]: 3700 M⁻¹ s⁻¹
Molecule: N[C@H](CCC(=O)O)C(=O)O [D-GLUTAMATE]

B1: Glutamate racemase (Lactobacillus fermentum), Q03469 (protein)
chain: T1 sequence (whole entry)
Km [7]: 57 µM | Km [8]: 300 µM

— ChEMBL document CHEMBL1150481, “The inhibition of glutamate racemase by” (Bioorg Med Chem Lett, 1997)
